Source: PMC8954547, “Nonpeptidic Z360-Analogs Tagged with Trivalent Radiometals as Anti-CCK2R Cancer Theranostic Agents: A Preclinical Study” (Pharmaceutics, 2022)

How the values were obtained:
HEK293-CCK2i4svR cells = test: Radioligand uptake and internalization in HEK293-CCK2i4svR cells; format: cell-based, human
Procedure: A day before the experiment, HEK293-CCK2i4svR cells were seeded in six-well plates. The next day, cells were rinsed with ice-cold internalization medium (IM: DMEM Glutamax-I, supplemented by 1% (v/v) FBS) and then the fresh medium was added (1.2 mL) at 37 °C. A further portion of IM (150 µL) was added in the upper well-row, and DG2 solution in IM (150 µL) was added in the lower row (to a final concentration of 1 μM; non-specific series). Each of the test radioligands, [^67Ga]Ga/[^111In]In/[^177Lu]Lu-GAS1/3 and [^67Ga]Ga/[^111In]In-GAS2, was finally added (250 fmol total conjugates in 150 μL 0.5% BSA-PBS) in all the wells and the plates were incubated at for 1 h at 37 °C in an Incubator-Orbital Shaker unit (MPM Instr. SrI, Bernareggio, MI, Italy); [^111In]In-GAS1/2/3 were incubated for 15 min, 30 min, 1 h and 2 h. At the predetermined time points, the plates were placed on ice, the medium was collected, and the plates were rinsed with 0.5% BSA-PBS (1 mL). Cells were subsequently treated with an acid-wash solution (2 × 600 µL; 50 mM glycine buffer pH 2.8, 0.1 M NaCl) and the fractions collected (membrane-bound). After briefly washing with 0.5% BSA-PBS (1 mL), the cells were lysed with 1 N NaOH (2 × 600 µL), and the fractions were collected (internalized). The radioactivity content of collected fractions was counted in the gamma counter, and the percentage of internalized and membrane-bound fractions per time point were calculated with Microsoft Excel. Specific internalized and membrane-bound counts were determined by subtracting the respective non-specific (in the presence of 1 μM DG2) from the respective total counts. Results represent specific internalized/membrane bound ± SD of total added radioactivity per well from three experiments performed in triplicate.

[1] = Radioligand stability in mice (radio-HPLC of blood and urine); format: in vivo; conditions: mean ± SD
Procedure: The formation of radiometabolites which can be detected in the blood was tested in blood samples collected 5 min post-injection (pi) of each of the radioligands [^67Ga]Ga/[^111In]In/[^177Lu]Lu-GAS1/3 and [^67Ga]Ga/[^111In]In-GAS2. For this study, in-house male Swiss albino mice (body weight: 30 ± 5 g, provided by the NCSR “Demokritos” Animal House) were used in groups of three. The animals received, through the tail vein, a 100-μL bolus containing each radioligand tested (2.5–3 nmol of the total conjugate in vehicle: saline/EtOH 9/1 v/v, corresponding to: up to 11 MBq for In-111, up to 13 MBq for Ga-67 and up to 74 MBq for Lu-177). Mice were euthanized, and blood was collected directly from the heart using a prechilled penicillin syringe and transferred in a prechilled EDTA-containing Eppendorf Protein LoBind® tube on ice (40 µL, 50 mM Na2EDTA solution). After centrifugation (10 min, 2000× g/4 °C, in a Hettich, Universal 320R, centrifuge), the blood plasma was collected, mixed with chilled MeCN in a 1/1 v/v ratio and centrifuged again (10 min, 15,000× g/4 °C). Supernatants were collected and concentrated to a small volume (≈50–100 μL) under a gentle N2-flux at 40 °C. They were then diluted with physiological saline (≈400 μL) and filtered through a Millex GV filter (0.22 μm, 13 mm Ø, Millipore, Milford, CT, USA). Aliquots of the filtrate were analyzed by radio-RP-HPLC using a Waters Symmetry Shield RP18 cartridge column (5 μm, 3.9 mm × 20 mm) eluted at a flow rate of 1.0 mL/min with the following gradient: 100% A/0% B to 55% A/45% B in 45 min; A = 0.1% aqueous TFA (v/v) and B = MeCN (system 2). The elution time (tR) of each parent radioligand was determined by coinjection of blood samples with an aliquot of the labeling solution on the HPLC column. Results were calculated as the average percentage of intact radioligand ± SD derived from three independent experiments.
Following the same injection protocol, radioligands were administered in additional groups of mice, but this time animals were euthanized 30 min pi. The urine was immediately collected from the bladder using a prechilled syringe and transferred as before in a prechilled EDTA-containing Eppendorf Protein LoBind® centrifuge tube on ice (40 µL, 50 mM Na2EDTA solution) and 0.1 mL of physiological saline. Urine proteins were precipitated by adding chilled MeCN in a 1/1 v/v ratio followed by a 10 min centrifugation step (15,000× g/4 °C). The supernatant was then collected and treated following the blood sample workup procedure. Aliquots of the Millex-GV filtrate (containing >90% of total urine activity) were analyzed by radio-HPLC, adopting the aforementioned conditions. Results were calculated as the average percentage of intact radioligand ± SD derived from three independent experiments.

[2] = system: SCID mice bearing twin HEK293-CCK2i4svR and wtHEK293 tumors; test: Biodistribution in SCID mice bearing twin HEK293-CCK2i4svR and wtHEK293 xenografts; format: in vivo
Procedure: Inocula containing a suspension of freshly harvested HEK293-CCK2i4svR/wtHEK293 cells (150 μL, 1.8 × 10^7/1.4 × 10^7 cells, respectively, in normal saline) were subcutaneously (sc) injected in the right and left flanks of male SCID mice (24.5 ± 2.3 g body weight, six weeks of age on arrival day, NCSR “Demokritos” Animal House Facility). Well-palpable tumors (0.42 ± 0.37/0.25 ± […], respectively) were grown at the inoculation site 3–4 weeks later, and biodistribution was conducted. On the day of biodistribution, animals were divided into groups of four and received the radioligand through the tail vein as a bolus (100 μL, containing each of: i. 78–91 kBq [^67Ga]GAS1/2/3 corresponding to 7–17 pmol GAS1/2/3; ii. 74–92 kBq [^111In]GAS1/2/3 corresponding to 20–25 pmol GAS1/2/3; iii. 730 kBq [^177Lu]Lu-GAS1/3 corresponding to 40 pmol GAS1/3, in-vehicle: saline/EtOH 9/1 v/v). Animals were euthanized at predetermined time intervals depending upon the radionuclide applied (for [^67Ga]Ga-GAS1/2/3: 1, 4 and 24 h pi; for [^111In]In-GAS1/2/3: 4 and 24 h pi–two extra groups of mice receiving gelofusine together with [^111In]In-GAS1/2 at 4 and 24 h pi were included; and for [^177Lu]Lu-GAS1/3: 4, 24, 48, 72 and 96 h pi). Mice were dissected, and blood samples, organs of interest and tumors were rapidly collected, weighted and counted in the gamma counter. Biodistribution data was calculated as the percentage of the administered dose per gram tissue (%IA/g) with the aid of suitable standards of the administered dose and the Microsoft Excel program. Results are presented as mean % IA/g values ± SD, n = 4 per time point, as determined by the PRISM^TM 6.0 GraphPad software (San Diego, CA, USA).

Intact radioligand in blood ([1]; mice blood collected 5 min pi): 96.3 ± 3.7 (3) %
Intact radioligand in urine ([1]; mice urine collected 30 min pi): 81.6 ± 1.5 (3) %
Biodistribution, Blood ([2]; 1 h pi): 0.86 ± 0.08 %IA/g
Biodistribution, CCK2i4svR(+) Tumor ([2]; 1 h pi): 4.06 ± 0.07 %IA/g
Biodistribution, CCK2i4svR(-) Tumor ([2]; 1 h pi): 0.48 ± 0.03 %IA/g
Biodistribution, Femur ([2]; 1 h pi): 0.24 ± 0.03 %IA/g
Biodistribution, Heart ([2]; 1 h pi): 0.27 ± 0.03 %IA/g
Biodistribution, Intestines ([2]; 1 h pi): > 25 %IA/g
Biodistribution, Kidneys ([2]; 1 h pi): 1.48 ± 0.18 %IA/g
Biodistribution, Liver ([2]; 1 h pi): 5.51 ± 2.03 %IA/g
Biodistribution, Lungs ([2]; 1 h pi): 0.80 ± 0.09 %IA/g
Biodistribution, Muscle ([2]; 1 h pi): 0.12 ± 0.02 %IA/g
Biodistribution, Pancreas ([2]; 1 h pi): 0.37 ± 0.05 %IA/g
Biodistribution, Spleen ([2]; 1 h pi): 0.52 ± 0.06 %IA/g
Biodistribution, Stomach ([2]; 1 h pi): 0.32 ± 0.14 %IA/g
Biodistribution, Intestines ([2]; 1 h pi, listed as [67Ga]Ga-GAS2): 25.26 ± 2.90 %IA/g
Biodistribution, Blood ([2]; 4 h pi): 0.19 ± 0.06 %IA/g
Biodistribution, CCK2i4svR(+) Tumor ([2]; 4 h pi): 1.53 ± 0.26 %IA/g
Biodistribution, CCK2i4svR(-) Tumor ([2]; 4 h pi): 0.19 ± 0.08 %IA/g
Biodistribution, Femur ([2]; 4 h pi): 0.13 ± 0.03 %IA/g
Biodistribution, Heart ([2]; 4 h pi): 0.10 ± 0.03 %IA/g
Biodistribution, Intestines ([2]; 4 h pi): > 25 %IA/g
Biodistribution, Kidneys ([2]; 4 h pi): 0.39 ± 0.11 %IA/g
Biodistribution, Liver ([2]; 4 h pi): 2.64 ± 0.85 %IA/g
Biodistribution, Muscle ([2]; 4 h pi): 0.04 ± 0.01 %IA/g
Biodistribution, Pancreas ([2]; 4 h pi): 0.08 ± 0.05 %IA/g
Biodistribution, Spleen ([2]; 4 h pi): 0.55 ± 0.15 %IA/g
Biodistribution, Stomach ([2]; 4 h pi): 0.14 ± 0.06 %IA/g
Biodistribution, Intestines ([2]; 4 h pi, listed as [67Ga]Ga-GAS2): 26.38 ± 11.89 %IA/g
Biodistribution, Blood ([2]; 24 h pi): 0.05 ± 0.00 %IA/g
Biodistribution, CCK2i4svR(+) Tumor ([2]; 24 h pi): 0.24 ± 0.03 %IA/g
Biodistribution, CCK2i4svR(-) Tumor ([2]; 24 h pi): 0.08 ± 0.00 %IA/g
Biodistribution, Femur ([2]; 24 h pi): 0.10 ± 0.03 %IA/g
Biodistribution, Heart ([2]; 24 h pi): 0.04 ± 0.01 %IA/g
Biodistribution, Intestines ([2]; 24 h pi): 0.31 ± 0.32 %IA/g
Biodistribution, Kidneys ([2]; 24 h pi): 0.06 ± 0.01 %IA/g
Biodistribution, Liver ([2]; 24 h pi): 0.78 ± 0.17 %IA/g
Biodistribution, Lungs ([2]; 24 h pi): 0.15 ± 0.02 %IA/g
Biodistribution, Muscle ([2]; 24 h pi): 0.02 ± 0.00 %IA/g
Biodistribution, Pancreas ([2]; 24 h pi): 0.03 ± 0.00 %IA/g
Biodistribution, Spleen ([2]; 24 h pi): 0.35 ± 0.02 %IA/g
Biodistribution, Stomach ([2]; 24 h pi): 0.06 ± 0.02 %IA/g
Background clearance / excretion route ([2]; mouse, in vivo): high hepatobiliary excretion
Structure (SMILES): CC(C)(C)C(=O)CN1C(=O)[C@H](NC(=O)Nc2cccc(C(=O)NCCOCCOCCOCCNC(=O)[C@H](CCC(=O)O)NC(=O)CCC(C(=O)[O-])N3CCN(CC(=O)[O-])CCN(CC(=O)[O-])CC3)c2)CN(C2CCCCC2)c2ccccc21.[67Ga+3] (stereo in doubt) [[^67Ga]Ga-GAS2]
Internalized to membrane-bound ratio (HEK293-CCK2i4svR cells): 0.9
Cell uptake (internalized + membrane-bound) (HEK293-CCK2i4svR cells; 1 h 37 °C, specific, of total added activity): 7.32 ± 0.57%
